In ChEMBL document CHEMBL1127236, “Synthesis and biological activities of fluorine-substituted ()-indolactam-V, the core structure of tumor promoter teleocidins” (1994) one finds Relativity and pID50 data, which are given here for three compounds.

Test [1] deals with HeLa. Briefly: Compound was tested for stimulation of the incorporation of 32Pi into phospholipids of HeLa cells at 10E-5 M concentration. The format is functional, Homo sapiens.
Test [2] has as its system HeLa. In words: Compound was tested for stimulation of the incorporation of 32Pi into phospholipids of HeLa cells at 10E-8 M concentration. The format is functional, Homo sapiens.
The species entered for a further test is Mus musculus. In words: In vitro binding affinity towards TPA receptor in mouse epidermal particulate fraction using [3H]TPA as radioligand.
Test [3] deals with HeLa. Briefly: Compound was tested for stimulation of the incorporation of 32Pi into phospholipids of HeLa cells at 10E-6 M concentration. It counts as functional, Homo sapiens.
Test [4] deals with HeLa. In words: Compound was tested for stimulation of the incorporation of 32Pi into phospholipids of HeLa cells at 10E-7 M concentration. It counts as functional, Homo sapiens.
In test [5] the test system is HeLa. Briefly: Compound was tested for stimulation of the incorporation of 32Pi into phospholipids of HeLa cells at 10E-4 M concentration. It counts as functional, Homo sapiens.

As for `CC(C)[C@H]1C(=O)N[C@H](CO)Cc2c[nH]c3cccc(c23)N1C` [INDOLACTUM], the Relativity worked out at 7.82 c.p.m. mg-1 in the test with HeLa [1], 1.04 c.p.m. mg-1 in the test with HeLa [2], 4.69 c.p.m. mg-1 in the test on HeLa [3] and 1.36 c.p.m. mg-1 with HeLa [4]. Besides, the pID50 in the test filed under Mus musculus worked out at 5.97.
On to `CC(C)[C@H]1C(=O)N[C@H](CO)Cc2c[nH]c3ccc(F)c(c23)N1C`, for which the Relativity was 3.57 c.p.m. mg-1 in the test with HeLa [1], 1.28 c.p.m. mg-1 in the test on HeLa [3], 1.29 c.p.m. mg-1 with HeLa [4] and 5.32 c.p.m. mg-1 in the test with HeLa [5]. The compound also returned a pID50 in the test listed under Mus musculus of 4.41.
Regarding `CC(C)[C@H]1C(=O)N[C@H](CO)Cc2c[nH]c3cc(F)cc(c23)N1C`, the Relativity was 6.87 c.p.m. mg-1 in the test on HeLa [1], 1.18 c.p.m. mg-1 in the test on HeLa [2], 7.43 c.p.m. mg-1 in the test on HeLa [3] and 1.78 c.p.m. mg-1 with HeLa [4]. Also, the pID50 in the test filed under Mus musculus was determined as 5.85.
